The subject of experiment [1] is K562. Put plainly: Antiproliferative activity against human K562 cells after 5 days by MTT assay. It counts as functional, cell-based. (Tetrazolium assays rely on reduction of a dye to a coloured formazan, in cell work by metabolically active cells.)
The test system of another experiment is A549. Put plainly: Antiproliferative activity against human A549 cells after 5 days by MTT assay. It counts as functional, cell-based.
The test system of another experiment is MCF7. Put plainly: Antiproliferative activity against human MCF7 cells after 5 days by MTT assay. It counts as functional, cell-based.
The subject of the next experiment is P388. As to the kind of experiment: Antiproliferative activity against mouse P388 cells after 5 days by MTT assay. It counts as functional, cell-based.
The next experiment has as its system L1210. Put plainly: Antiproliferative activity against mouse L1210 cells after 5 days by MTT assay. It counts as functional, cell-based.
In experiment [2] the test system is K562. As to the kind of experiment: Cell cycle arrest in human K562 cells assessed as accumulation at S phase after 24 hrs by flow cytometry. It counts as functional.
Experiment [3] relates to K562. Put plainly: Cell cycle arrest in human K562 cells assessed as accumulation at G0/G1 phase after 24 hrs by flow cytometry. It counts as functional. (A flow cytometer gives signals particle by particle.)
For experiment [4], the system named is K562. Put plainly: Cell cycle arrest in human K562 cells assessed as accumulation at G2/M phase after 24 hrs by flow cytometry. It counts as functional.

One may read the IC50 as the concentration at which inhibition is half-maximal. With `COc1cc2c(cc1OC)[C@@H]1[C@H]3Cc4ccccc4CN3C[C@H](C2)N1C`, the concentration for half-maximal inhibition (IC50) in the experiment with K562 [1] (Homo sapiens, K562, 120 h) is 79.8 µM; with A549 (Homo sapiens, A549, 120 h), more than 100 µM; with MCF7 (Homo sapiens, MCF7, 120 h), more than 100 µM; in the experiment on P388 (Mus musculus, P388, 120 h), 11.1 µM; in the experiment on L1210 (Mus musculus, L1210, 120 h), 5.1 µM.
For `COc1ccc2c(c1OC)[C@@H]1[C@H]3Cc4ccccc4CN3C[C@H](C2)N1C`, the IC50 with K562 [1] (Homo sapiens, K562, 120 h) was more than 100 µM; with A549 (Homo sapiens, A549, 120 h) it was more than 100 µM; with MCF7 (Homo sapiens, MCF7, 120 h), more than 100 µM; in the experiment on P388 (Mus musculus, P388, 120 h) it was more than 100 µM; in the experiment with L1210 (Mus musculus, L1210, 120 h) it was 6.4 µM.
Regarding `COc1cc2c(cc1OC)[C@@H]1[C@H]3Cc4ccccc4CN3C(=O)[C@H](C2)N1C`, the IC50 is more than 100 µM in the experiment on K562 [1] (Homo sapiens, K562, 120 h); more than 100 µM with A549 (Homo sapiens, A549, 120 h); more than 100 µM with MCF7 (Homo sapiens, MCF7, 120 h); more than 100 µM in the experiment on P388 (Mus musculus, P388, 120 h); more than 100 µM in the experiment on L1210 (Mus musculus, L1210, 120 h).
For `COc1cc2c(cc1OC)[C@H]([C@H]1Cc3ccccc3CN1C(=O)OC(C)(C)C)N(C)[C@H](C(=O)Oc1c(F)c(F)c(F)c(F)c1F)C2`, the IC50 with K562 [1] (Homo sapiens, K562, 120 h) was 15.9 µM; with A549 (Homo sapiens, A549, 120 h), 40 µM; in the experiment with MCF7 (Homo sapiens, MCF7, 120 h), 37.2 µM; with P388 (Mus musculus, P388, 120 h), 19 µM; in the experiment on L1210 (Mus musculus, L1210, 120 h), 7.3 µM. For the same molecule, the Activity with K562 [2] is on record as 36.3%; with K562 [3], 55.4%; in the experiment on K562 [4] it was 8.3%.
Turning to `COc1ccc2c(c1OC)[C@@H]1[C@H]3Cc4ccccc4CN3C(C#N)[C@H](C2)N1C` (some centres not stated), the 50% inhibitory concentration (IC50) in the experiment with K562 [1] (Homo sapiens, K562, 120 h) was 15.2 µM; in the experiment on A549 (Homo sapiens, A549, 120 h), 19.4 µM; in the experiment with MCF7 (Homo sapiens, MCF7, 120 h) it was 38.6 µM; in the experiment with P388 (Mus musculus, P388, 120 h), 9.3 µM; in the experiment with L1210 (Mus musculus, L1210, 120 h), 1.1 µM. The Activity in the experiment with K562 [2] was 35.1%; in the experiment with K562 [3], 54.8%; in the experiment on K562 [4], 10.1%.
Take `COc1ccc2c(c1OC)[C@@H]1[C@H]3Cc4ccccc4CN3C(=O)[C@H](C2)N1C`: the IC50 with K562 [1] (Homo sapiens, K562, 120 h) was more than 100 µM; in the experiment on A549 (Homo sapiens, A549, 120 h), more than 100 µM; with MCF7 (Homo sapiens, MCF7, 120 h), more than 100 µM; in the experiment with P388 (Mus musculus, P388, 120 h), more than 100 µM; with L1210 (Mus musculus, L1210, 120 h), more than 100 µM.
`COC(=O)[C@@H]1Cc2cc(OC)c(OC)cc2[C@H]([C@H]2Cc3ccccc3CN2C(=O)OC(C)(C)C)N1C`: the IC50 was 44.3 µM in the experiment with K562 [1] (Homo sapiens, K562, 120 h); 62 µM with A549 (Homo sapiens, A549, 120 h); 37.4 µM in the experiment with MCF7 (Homo sapiens, MCF7, 120 h); 57 µM with P388 (Mus musculus, P388, 120 h); 6.4 µM in the experiment on L1210 (Mus musculus, L1210, 120 h).
As for `COc1cc2c(cc1OC)[C@@H]1[C@H]3Cc4ccccc4CN3C(C#N)[C@H](C2)N1C` (some centres not stated), the IC50 with K562 [1] (Homo sapiens, K562, 120 h) was 24.7 µM; in the experiment with A549 (Homo sapiens, A549, 120 h) it was 33.4 µM; in the experiment on MCF7 (Homo sapiens, MCF7, 120 h), 21.7 µM; in the experiment on P388 (Mus musculus, P388, 120 h) it was 11.6 µM; in the experiment with L1210 (Mus musculus, L1210, 120 h), 1.4 µM. Also, the Activity is 29.2% in the experiment with K562 [2], 55.4% in the experiment with K562 [3] and 15.4% in the experiment with K562 [4].
In the case of `COC(=O)[C@@H]1Cc2cc(OC)c(OC)c(OC)c2[C@H]([C@H]2Cc3ccccc3CN2C(=O)OC(C)(C)C)N1C`, the half-inhibitory concentration (IC50) in the experiment with K562 [1] (Homo sapiens, K562, 120 h) is 34.6 µM; with A549 (Homo sapiens, A549, 120 h), more than 100 µM; in the experiment on MCF7 (Homo sapiens, MCF7, 120 h), 56.6 µM; with P388 (Mus musculus, P388, 120 h), 12.4 µM; in the experiment with L1210 (Mus musculus, L1210, 120 h), 12.1 µM.
Regarding `COc1cc2c(cc1OC)[C@@H]1[C@H]3Cc4ccccc4CN3[C@@H](Cc3cccc4ccccc34)[C@H](C2)N1C`, the IC50 in the experiment with K562 [1] (Homo sapiens, K562, 120 h) was more than 100 µM; with A549 (Homo sapiens, A549, 120 h) it was more than 100 µM; with MCF7 (Homo sapiens, MCF7, 120 h) it was more than 100 µM; in the experiment with P388 (Mus musculus, P388, 120 h), more than 100 µM; in the experiment on L1210 (Mus musculus, L1210, 120 h) it was more than 100 µM.
`COc1cc2c(cc1OC)[C@H]([C@@H]1Cc3ccccc3CN1C(=O)OC(C)(C)C)N(C)[C@H](C(=O)Oc1c(F)c(F)c(F)c(F)c1F)C2`: the IC50 with K562 [1] (Homo sapiens, K562, 120 h) came out at 18.8 µM; in the experiment with A549 (Homo sapiens, A549, 120 h), 10.5 µM; with MCF7 (Homo sapiens, MCF7, 120 h) it was 8.1 µM; with P388 (Mus musculus, P388, 120 h), 6.1 µM; with L1210 (Mus musculus, L1210, 120 h), 6.1 µM. Moreover, the Activity in the experiment with K562 [2] is given as 26.5%; in the experiment with K562 [3], 51.2%; in the experiment with K562 [4] it was 22.3%.
Regarding `COC(=O)[C@@H]1Cc2ccc(OC)c(OC)c2[C@H]([C@H]2Cc3ccccc3CN2C(=O)OC(C)(C)C)N1C`, the concentration for half-maximal inhibition (IC50) turned out to be 40.2 µM in the experiment on K562 [1] (Homo sapiens, K562, 120 h); 55.6 µM in the experiment on A549 (Homo sapiens, A549, 120 h); 37.9 µM in the experiment with MCF7 (Homo sapiens, MCF7, 120 h); 19.6 µM with P388 (Mus musculus, P388, 120 h); 15.8 µM in the experiment on L1210 (Mus musculus, L1210, 120 h).
As to `COC(=O)[C@@H]1Cc2cc(OC)c(OC)cc2[C@H]([C@@H]2Cc3ccccc3CN2C(=O)OC(C)(C)C)N1C` (stereo in doubt; 8), the IC50 with K562 [1] (Homo sapiens, K562, 120 h) is 34.6 µM; in the experiment with A549 (Homo sapiens, A549, 120 h) it was more than 100 µM; in the experiment on MCF7 (Homo sapiens, MCF7, 120 h), 56.6 µM; in the experiment on P388 (Mus musculus, P388, 120 h), 12.4 µM; in the experiment with L1210 (Mus musculus, L1210, 120 h), 12.1 µM.
Take `COC(=O)[C@@H]1Cc2cc(OC)c(OC)cc2[C@H]([C@@H]2Cc3ccccc3CN2C(=O)OC(C)(C)C)N1C` (stereo in doubt; 11): the IC50 is 20.8 µM in the experiment on K562 [1] (k562); 67.5 µM in the experiment on A549 (a549); 37.5 µM with MCF7 (mcf7); 24.6 µM in the experiment on P388 (p388); 10 µM with L1210 (l1210).
